Key:
GST-tagged MDMX = molecular target: T1, GST-tagged MDMX (Homo sapiens, UniProt O15151); test: HTRF binding assay of GST-tagged MDMX to p53 peptide
T1 sequence (O15151 1-490): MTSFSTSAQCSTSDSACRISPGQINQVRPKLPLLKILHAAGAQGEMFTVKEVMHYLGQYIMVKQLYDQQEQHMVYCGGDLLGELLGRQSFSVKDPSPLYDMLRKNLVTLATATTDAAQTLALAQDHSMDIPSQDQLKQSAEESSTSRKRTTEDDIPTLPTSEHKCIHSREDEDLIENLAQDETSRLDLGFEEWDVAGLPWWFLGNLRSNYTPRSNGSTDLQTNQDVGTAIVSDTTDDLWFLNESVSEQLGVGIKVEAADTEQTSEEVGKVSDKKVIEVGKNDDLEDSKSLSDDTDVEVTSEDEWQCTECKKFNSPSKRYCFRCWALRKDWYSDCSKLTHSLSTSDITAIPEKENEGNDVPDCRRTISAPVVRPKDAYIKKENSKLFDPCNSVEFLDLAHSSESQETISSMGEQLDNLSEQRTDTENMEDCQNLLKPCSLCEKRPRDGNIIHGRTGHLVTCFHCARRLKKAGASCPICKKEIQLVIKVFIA

[1] = molecular target: recombinant GST-tagged MDM2 (Homo sapiens, UniProt Q00987); test: HTRF assay of interaction between p53 peptide and GST-tagged MDM2; conditions: inhibition of GST-MDM2 (160 ng/ml) binding to biotinylated p53-peptide
How it was run: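 Compounds were preincubated with 160 ng/ml GST-MDM2 and 90 nM N-terminally biotinylated p53-like peptide (final) in 20 mM TBS, 0.02% BSA, 1 mM DTT for 1 h at 37 °C. Eu-anti-GST antibody and streptavidin-APC were added for 30 min at room temperature; binding read as TR-FRET at 665 and 615 nm.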

Sequence of recombinant GST-tagged MDM2 (Q00987 whole entry): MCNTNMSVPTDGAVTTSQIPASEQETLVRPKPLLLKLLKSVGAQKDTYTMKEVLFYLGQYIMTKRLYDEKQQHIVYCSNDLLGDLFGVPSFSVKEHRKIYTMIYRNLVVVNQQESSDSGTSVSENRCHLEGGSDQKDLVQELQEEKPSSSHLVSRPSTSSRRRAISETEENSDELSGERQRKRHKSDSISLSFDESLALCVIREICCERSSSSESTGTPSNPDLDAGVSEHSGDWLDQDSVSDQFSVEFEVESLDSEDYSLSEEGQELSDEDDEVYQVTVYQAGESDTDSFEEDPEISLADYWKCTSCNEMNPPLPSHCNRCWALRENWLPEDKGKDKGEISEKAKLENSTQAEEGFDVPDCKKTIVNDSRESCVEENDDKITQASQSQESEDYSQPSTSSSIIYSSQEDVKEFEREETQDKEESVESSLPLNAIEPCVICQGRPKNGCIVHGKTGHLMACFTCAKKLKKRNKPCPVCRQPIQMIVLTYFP

In the case of `CC(C)Oc1cc(Cl)c(S(N)(=O)=O)cc1C1=N[C@@](C)(c2ccc(Cl)cc2)[C@@](C)(c2ccc(Cl)cc2)N1C(=O)N1CCC(CC(N)=O)CC1` [Example 64, 2-{1-[(4S,5R)-2-(4-Chloro-2-isopropoxy-5-sulfamoyl-phenyl)-4,5-bis-(4-chloro-phenyl)-4,5-dimethyl-4,5-dihydro-imidazole-1-carbonyl]-piperidin-4-yl}-acetamide], the IC50 (GST-tagged MDMX) is reported as 283 nM and the IC50 [1] is reported as 6.2 nM.

`CC(C)Oc1cc(Cl)c(S(=O)(=O)NC(C)(C)C)cc1C1=N[C@@](C)(c2ccc(Cl)cc2)[C@@](C)(c2ccc(Cl)cc2)N1C(=O)N1CCC(CC(N)=O)CC1` [Example 60, 2-{1-[(4S,5R)-2-(5-tert-Butylsulfamoyl-4-chloro-2-isopropoxy-phenyl)-4,5-bis-(4-chloro-phenyl)-4,5-dimethyl-4,5-dihydro-imidazole-1-carbonyl]-piperidin-4-yl}-acetamide] showed an IC50 (GST-tagged MDMX) of 570 nM and an IC50 [1] of 15 nM.

In the case of `CCNC(=O)NC1CCN(C(=O)N2C(c3cc(S(C)(=O)=O)c(Cl)cc3OCC)=N[C@@](C)(c3ccc(Cl)cc3)[C@@]2(C)c2ccc(Cl)cc2)CC1` [Example 10, 1-{1-[(4S,5R)-2-(4-Chloro-2-ethoxy-5-methanesulfonyl-phenyl)-4,5-bis-(4-chloro-phenyl)-4,5-dimethyl-4,5-dihydro-imidazole-1-carbonyl]-piperidin-4-yl}-3-ethyl-urea], the IC50 (GST-tagged MDMX) is reported as 974 nM and the IC50 [1] is reported as 4.2 nM.

Work on `CCOc1cc(Cl)c(S(=O)(=O)NC(C)(C)C)cc1C1=N[C@@](C)(c2ccc(Cl)cc2)[C@@](C)(c2ccc(Cl)cc2)N1C(=O)N1CCN(CC(=O)NCCOC)CC1` [Example 49, 2-{4-[(4S,5R)-2-(5-tert-Butylsulfamoyl-4-chloro-2-ethoxy-phenyl)-4,5-bis-(4-chloro-phenyl)-4,5-dimethyl-4,5-dihydro-imidazole-1-carbonyl]-piperazin-1-yl}-N-(2-methoxy-ethyl)-acetamide] yielded an IC50 (GST-tagged MDMX) of 1340 nM and an IC50 [1] of 8.7 nM.

`CCOc1cc(Cl)c(S(=O)(=O)NC(C)(C)C)cc1C1=N[C@@](C)(c2ccc(Cl)cc2)[C@@](C)(c2ccc(Cl)cc2)N1C(=O)N1CCN(CCC(N)=O)CC1` [Example 50, 3-{4-[(4S,5R)-2-(5-tert-Butylsulfamoyl-4-chloro-2-ethoxy-phenyl)-4,5-bis-(4-chloro-phenyl)-4,5-dimethyl-4,5-dihydro-imidazole-1-carbonyl]-piperazin-1-yl}-propionamide] gave an IC50 (GST-tagged MDMX) of 1450 nM and an IC50 [1] of 9.3 nM.

`CC(C)Oc1cc(Cl)c(S(N)(=O)=O)cc1C1=N[C@@](C)(c2ccc(Cl)cc2)[C@@](C)(c2ccc(Cl)cc2)N1C(=O)N1CCN(CCCS(C)(=O)=O)CC1` [Example 65, 5-{(4S,5R)-4,5-Bis-(4-chloro-phenyl)-1-[4-(3-methanesulfonyl-propyl)-piperazine-1-carbonyl]-4,5-dimethyl-4,5-dihydro-1H-imidazol-2-yl}-2-chloro-4-isopropoxy-benzenesulfonamide] showed an IC50 (GST-tagged MDMX) of 337 nM and an IC50 [1] of 7.7 nM.

Work on `CCOc1cc(Cl)c(S(C)(=O)=O)cc1C1=N[C@@](C)(c2ccc(Cl)cc2)[C@@](C)(c2ccc(Cl)cc2)N1C(=O)N1CCN(CC(N)=O)CC1` [Example 6, 2-{4-[(4S,5R)-2-(4-Chloro-2-ethoxy-5-methanesulfonyl-phenyl)-4,5-bis-(4-chloro-phenyl)-4,5-dimethyl-4,5-dihydro-imidazole-1-carbonyl]-piperazin-1-yl}-acetamide] yielded an IC50 (GST-tagged MDMX) of 1210 nM and an IC50 [1] of 6.6 nM.

`CCOc1cc(Cl)c(S(C)(=O)=O)cc1C1=N[C@@](C)(c2ccc(Cl)cc2)[C@@](C)(c2ccc(Cl)cc2)N1C(=O)N1CCC(CC(=O)N(CCOC)CCOC)CC1` [Example 24, 2-{1-[(4S,5R)-2-(4-Chloro-2-ethoxy-5-methanesulfonyl-phenyl)-4,5-bis-(4-chloro-phenyl)-4,5-dimethyl-4,5-dihydro-imidazole-1-carbonyl]-piperidin-4-yl}-N,N-bis-(2-methoxy-ethyl)-acetamide] showed an IC50 (GST-tagged MDMX) of 1520 nM and an IC50 [1] of 7.2 nM.

Work on `CCOc1cc(Cl)c(S(C)(=O)=O)cc1C1=N[C@@](C)(c2ccc(Cl)cc2)[C@@](C)(c2ccc(Cl)cc2)N1C(=O)N1CCN(C[C@H](O)CO)CC1` [Example 3, [(4S,5R)-2-(4-Chloro-2-ethoxy-5-methanesulfonyl-phenyl)-4,5-bis-(4-chloro-phenyl)-4,5-dimethyl-4,5-dihydro-imidazol-1-yl]-[4-((S)-2,3-dihydroxy-propyl)-piperazin-1-yl]-methanone] yielded an IC50 (GST-tagged MDMX) of 1140 nM and an IC50 [1] of 5.4 nM.

`CCOc1cc(Cl)c(S(C)(=O)=O)cc1C1=N[C@@](C)(c2ccc(Cl)cc2)[C@@](C)(c2ccc(Cl)cc2)N1C(=O)N1CCC2(CCNCC2)CC1` [Example 19, [(4S,5R)-2-(4-Chloro-2-ethoxy-5-methanesulfonyl-phenyl)-4,5-bis-(4-chloro-phenyl)-4,5-dimethyl-4,5-dihydro-imidazol-1-yl]-(3,9-diaza-spiro[5.5]undec-3-yl)-methanone] gave an IC50 (GST-tagged MDMX) of 3770 nM and an IC50 [1] of 12.5 nM.

Source: patent US20140148443A1, “Novel Imidazolines as dual inhibitors of MDM2 and MDMX” (priority 2012, published 2014)
